# Measurements as given in patent US20190083498A1, “THERAPIES FOR HEMATOLOGIC MALIGNANCIES” (GILEAD CALISTOGA LLC, priority 2008, published 2019).
# pIC50: −log10 of the molar value.
# Assays:
# [1] = system: CLL cells with or without StromaNKTert; assay: CLL cell viability/apoptosis in stromal co-culture, Annexin V/PI FACS; type: cell-based, human; conditions: 100 nM alone; two patients; 24 hours
# Experimental: CLL cell and stromal cell co-cultures: CLL cells were cultured under standardized conditions on stromal cell lines or primary NLC. Briefly, stromal cells were seeded one day prior to each experiment onto 24-well plates (Corning Life Sciences) at a concentration of 3×10^5 cells/mL/well and incubated at 37° C. in 5% CO2. Stromal cell confluence was confirmed by phase contrast microscopy, and CLL cells were then added onto the stromal cell layer at a concentration of 3×10^6 cells/mL. Cultures were then treated with compounds for the specified time periods. CLL cells were removed for analysis by gentle pipetting with media, and were then washed in PBS prior to analysis. A 24-hour co-culture time point was used unless otherwise indicated.
# Cell viability testing and reagents: CLL cell viability was determined by analysis of Annexin V-FITC (BD Biosciences, San Diego, Calif.) and Propidium Iodine (PI) (Sigma) by FACS.
# To determine whether PI3K inhibition increased the sensitivity of stroma-exposed CLL cells by increasing priming, PB-derived CLL cells cultured with or without StromaNKTert cells for 24 hours and were examined using Annexin-PI and BH3 profiling. […] Stromal co-culture of four CLL patient samples led to protection from apoptosis in untreated cells.
# [2] = system: INA-6 and LB cells; assay: Growth of MM cells treated with 3-MA; type: cell-based, human; conditions: up to 100 μM; 24 h
# Experimental: P110 δ positive LB cells (♦) were treated with 3-MA (0-100 μM) for 24 h. Data represent means (±SD) of triplicate cultures.
# [3] = system: LB cells; assay: Subcutaneous human MM xenograft model; type: in vivo
# Experimental: CB17 SCID mice (48-54 days old) were purchased from Charles River Laboratories (Wilmington, Mass.). All animal studies were conducted according to protocols approved by the Animal Ethics Committee of the Dana-Farber Cancer Institute. Mice were inoculated subcutaneously in the right flank with 3×10^6 LB cells in 100 μL RPMI-1640. When tumors were palpable, mice were assigned into the treatment groups receiving 10 mg/kg or 30 mg/kg gavages twice daily; and 7 mice in the control group receiving vehicle alone. Caliper measurements of the longest perpendicular tumor diameters were performed every alternate day to estimate the tumor volume using the following formula representing the 3D volume of an ellipse: 4/3× (width/2)2× (length/2). Animals were sacrificed when tumors reached 2 cm or the mice appeared moribund. Survival was evaluated from the first day of treatment until death. […] The images were captured with a canon IXY digital 700 camera. Ex vivo analysis of tumor images was captured with a LEICA DM IL microscope and LEICA DFC300 FX camera at 40 u/0.60 (Leica, Heidelberg, Germany).
# Mean tumor volume was calculated as in Materials and Methods, FIG. 36A. Error bars represent SD (±).
# Tumors harvested from Compound II (30 mg/kg) treated mouse (right panel) and control mouse (left panel) were subjected to immuno-histochemistric analysis using CD31 and P-AKT Abs. CD31 and P-AKT positive cells are dark brown, FIG. 36D.
# Survival was evaluated from the first day of treatment until sacrifice using Kaplan-Meier curves, FIG. 36C.
# Tumor tissues were harvested from mice treated with control vehicle or Compound II (30 mg/kg). Protein levels of phosphorylated of PDK-1 and AKT (Ser473) were determined by western blotting of cell lysates, FIG. 36E. Actin was used as a loading control.
# [4] = system: INA-6 cells; assay: SCID-hu model, INA-6 cells in human bone chip, serum shuIL-6R ELISA; type: in vivo, SCID mice; conditions: 10 or 30 mg/kg daily for 4 weeks
# Experimental: Human fetal bone grafts were implanted into CB17 SCID-mice (SCID-hu). Four weeks following bone implantation, 2.5×10^6 INA-6 cells were injected directly into the human BM cavity in the graft in a final volume of 100 μl of RPMI-1640 medium. An increase in the levels of soluble human IL-6 receptor (shulL-6R) from INA-6 cells was used as an indicator of MM cell growth and burden of disease in SCID-hu mice. Mice developed measurable serum shulL-6R approximately 4 weeks following INA-6 cell injection, and then received either 10 or 30 mg/kg drug or vehicle alone daily for […]. Blood samples were collected and assessed for shulL-6R levels using an enzyme-linked immunosorbent assay (ELISA, R&D Systems. Minneapolis Minn.).
# Growth of INA-6 cells engrafted in human bone chips in SCID mice was monitored by serial serum measurements of shulL-6R. […] Error bars indicate SD (±).
# In order to examine the activity of compound II on MM cell growth in the context of the human BM microenvironment in vivo, a SCID-hu model was used in which IL-6 dependent INA-6 cells are directly injected into a human bone chip implanted subcutaneously in SCID-mice. This model recapitulates the human BM microenvironment with human IL-6/BMSC-dependent growth of INA-6 human MM cells. These SCID-hu mice were treated with compound II or vehicle alone daily for 4 weeks, and serum shulL-6R monitored as a marker tumor burden. […]
# [5] = biological target: class II PI3K CIIbeta (Homo sapiens, UniProt O00750); assay: IC50 profile across kinases, InvitroGen Adapta assay; type: biochemical
# class II PI3K CIIbeta, sequence (O00750 whole entry): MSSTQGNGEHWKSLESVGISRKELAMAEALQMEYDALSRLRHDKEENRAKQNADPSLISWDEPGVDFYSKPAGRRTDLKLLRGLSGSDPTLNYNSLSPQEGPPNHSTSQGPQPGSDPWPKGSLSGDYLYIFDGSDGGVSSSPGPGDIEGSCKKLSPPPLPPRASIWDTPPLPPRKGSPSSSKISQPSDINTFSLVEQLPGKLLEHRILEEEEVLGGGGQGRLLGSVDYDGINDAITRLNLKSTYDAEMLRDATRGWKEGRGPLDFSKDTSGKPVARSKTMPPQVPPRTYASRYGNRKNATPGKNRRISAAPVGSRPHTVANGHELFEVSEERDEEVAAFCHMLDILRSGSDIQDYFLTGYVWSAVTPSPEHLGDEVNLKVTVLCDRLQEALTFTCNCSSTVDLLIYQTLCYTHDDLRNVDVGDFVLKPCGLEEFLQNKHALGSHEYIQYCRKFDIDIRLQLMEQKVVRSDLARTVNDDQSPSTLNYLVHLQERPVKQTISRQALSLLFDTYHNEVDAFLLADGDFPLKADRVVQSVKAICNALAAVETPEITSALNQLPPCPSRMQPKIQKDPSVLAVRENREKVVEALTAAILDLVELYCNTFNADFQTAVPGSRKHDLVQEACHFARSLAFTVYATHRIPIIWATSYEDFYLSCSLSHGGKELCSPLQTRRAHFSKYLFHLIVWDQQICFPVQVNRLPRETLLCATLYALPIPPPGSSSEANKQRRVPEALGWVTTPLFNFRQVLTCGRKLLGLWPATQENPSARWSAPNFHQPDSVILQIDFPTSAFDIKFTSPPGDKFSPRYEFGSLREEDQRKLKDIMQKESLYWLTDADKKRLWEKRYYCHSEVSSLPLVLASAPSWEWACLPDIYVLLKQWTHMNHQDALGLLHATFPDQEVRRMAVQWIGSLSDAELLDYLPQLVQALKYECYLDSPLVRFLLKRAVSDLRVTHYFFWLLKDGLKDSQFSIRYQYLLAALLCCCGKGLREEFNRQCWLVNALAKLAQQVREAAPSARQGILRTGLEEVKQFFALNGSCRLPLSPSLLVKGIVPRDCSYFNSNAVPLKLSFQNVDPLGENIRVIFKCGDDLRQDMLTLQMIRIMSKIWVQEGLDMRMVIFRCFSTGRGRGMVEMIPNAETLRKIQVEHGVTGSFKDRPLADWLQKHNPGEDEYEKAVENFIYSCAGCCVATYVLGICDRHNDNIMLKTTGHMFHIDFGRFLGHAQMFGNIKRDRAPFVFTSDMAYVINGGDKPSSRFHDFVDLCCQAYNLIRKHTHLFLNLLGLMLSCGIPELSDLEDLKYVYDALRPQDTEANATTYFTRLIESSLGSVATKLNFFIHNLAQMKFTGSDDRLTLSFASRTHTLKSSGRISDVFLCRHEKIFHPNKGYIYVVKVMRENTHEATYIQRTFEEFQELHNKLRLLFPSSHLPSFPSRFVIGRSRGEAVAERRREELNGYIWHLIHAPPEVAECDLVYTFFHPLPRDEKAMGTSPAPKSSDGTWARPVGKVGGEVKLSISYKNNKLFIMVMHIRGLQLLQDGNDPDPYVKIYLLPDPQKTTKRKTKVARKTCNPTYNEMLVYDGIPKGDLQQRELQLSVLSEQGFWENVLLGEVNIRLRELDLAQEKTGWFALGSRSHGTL
# [6] = biological target: Class III PI3K hVPS34 (Homo sapiens, UniProt Q8NEB9); conditions: read-out: Class III PI3K, IC50 hVPS34; InvitroGen Adapta assay
# Class III PI3K hVPS34, sequence (Q8NEB9 whole entry): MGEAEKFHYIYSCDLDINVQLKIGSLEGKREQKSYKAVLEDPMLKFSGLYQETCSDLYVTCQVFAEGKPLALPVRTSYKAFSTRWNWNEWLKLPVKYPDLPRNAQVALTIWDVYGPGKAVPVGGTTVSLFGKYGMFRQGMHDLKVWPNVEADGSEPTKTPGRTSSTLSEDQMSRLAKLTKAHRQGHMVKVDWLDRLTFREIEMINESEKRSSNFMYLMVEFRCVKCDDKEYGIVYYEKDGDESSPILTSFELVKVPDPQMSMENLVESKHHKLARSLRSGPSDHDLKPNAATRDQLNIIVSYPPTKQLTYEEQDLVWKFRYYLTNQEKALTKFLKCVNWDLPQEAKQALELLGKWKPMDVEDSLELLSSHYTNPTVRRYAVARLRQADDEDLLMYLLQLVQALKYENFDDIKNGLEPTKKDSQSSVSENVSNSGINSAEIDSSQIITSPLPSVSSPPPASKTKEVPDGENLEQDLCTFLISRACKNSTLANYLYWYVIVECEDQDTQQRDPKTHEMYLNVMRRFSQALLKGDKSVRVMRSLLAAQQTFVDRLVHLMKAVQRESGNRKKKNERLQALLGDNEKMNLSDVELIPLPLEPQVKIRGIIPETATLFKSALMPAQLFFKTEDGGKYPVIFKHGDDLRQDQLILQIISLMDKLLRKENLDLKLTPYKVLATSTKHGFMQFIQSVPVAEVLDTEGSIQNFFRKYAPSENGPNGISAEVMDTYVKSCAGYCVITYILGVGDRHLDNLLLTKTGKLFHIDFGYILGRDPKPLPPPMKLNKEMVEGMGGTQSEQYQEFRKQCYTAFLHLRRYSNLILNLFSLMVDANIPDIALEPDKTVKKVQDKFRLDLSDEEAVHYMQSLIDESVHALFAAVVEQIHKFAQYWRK
smiles,measurement,setting,value
"CN(C)CC[C@H](CSc1ccccc1)Nc1ccc(S(=O)(=O)NC(=O)c2ccc(N3CCN(Cc4ccccc4-c4ccc(Cl)cc4)CC3)cc2)cc1[N+](=O)[O-] [ABT-737, reference compound]","CLL cell viability in stromal co-culture, single agent",[1],profound stroma-mediated resistance
"Cn1cnc(N)c2ncnc1-2 [Compound 3-MA, 3-Methyladenine]",cytotoxicity in INA-6 and LB cells,[2],No cytotoxicity
"CC(Nc1ncnc2[nH]cnc12)c1nc2ccc(F)cc2c(=O)n1-c1ccccc1 (stereo not drawn) [Compound II, 2-(1-(9H-purin-6-ylamino)ethyl)-6-fluoro-3-phenylquinazolin-4(3H)-one]",MM tumor growth,"[3]; 10 mg/kg or 30 mg/kg orally twice a day, n=7",significantly reduced
same,CD31 positive cells and microvessel density,[3]; 30 mg/kg,significantly decreased
same,p-Akt and p-PDK-1 in tumor,"[3]; 30 mg/kg, immunohistochemical and immunoblot analysis",significantly inhibited
same,body weight,"[3]; mouse, in vivo",did not affect body weight
same,tumor growth (serum shuIL-6R),[4],significantly inhibited tumor growth
Cn1c(=O)n(-c2ccc(C(C)(C)C#N)cc2)c2c3cc(-c4cnc5ccccc5c4)ccc3ncc21 [NVP-BEZ-235],pIC50,[5],8.52
same,pIC50,[6],8.22
